# Tests used:
# [1] = tested on: rabbit serum obtained by immunizing a rabbit with the SARS-CoV strain Frankfurt 1; assay type: binding; parameters: Binding of a rabbit serum to linear peptides / Binding of a rabbit serum to looped peptides / Rabbit serum linear peptides / Rabbit serum looped peptides / Binding of a rabbit serum to linear peptides of protein N of SARS-CoV Urbani (Rabbit serum linear peptides) / Binding of a rabbit serum to looped/cyclic peptides of protein N of SARS-CoV Urbani (Rabbit serum looped peptides): unit not given here
# [2] = tested on: recombinant human anti-SARS-CoV antibody 03-018; assay type: binding; parameters: Binding of antibody 03-018 to linear peptides of the N protein of SARS-CoV Urbani / Binding of antibody 03-018 to looped/cyclic peptides of the N protein of SARS-CoV Urbani: unit not given here
# [3] = tested on: control sera (pooled serum of ten healthy LUMC hospital workers; commercial negative donor pooled serum from the Dutch bloodbank); assay type: binding, human; parameters: Binding of Control serum LUMC to linear peptides / Binding of Control serum Blood-bank to linear peptides / Binding of Control serum LUMC to looped peptides / Binding of Control Serum Blood-Bank to Looped peptides / Binding of Control serum LUMC to linear peptides of the protein M of SARS-CoV Urbani / Binding of Control serum Blood-bank to linear peptides of the protein M of SARS-CoV Urbani / Binding of Control serum LUMC to looped peptides of the protein M of SARS-CoV Urbani / Binding of Control Serum Blood-Bank to Looped peptides of the protein M of SARS-CoV Urbani: unit not given here
# [4] = tested on: antibodies in sera from SARS patients (sera 1a, 1b, 2, 6, 37, 62, London, SARS-yellow, SARS-green); assay type: binding, human; parameters: Binding of serum 6 to linear peptides of protein X1 of SARS-CoV Urbani / Binding of serum 37 to linear peptides of protein X1 of SARS-CoV Urbani / Binding of serum 6 to looped/cyclic peptide (PEPSCAN-ELISA) / Binding of serum 37 to looped/cyclic peptide (PEPSCAN-ELISA) / Binding of serum 37 to looped/cyclic peptides of protein X1 of SARS-CoV Urbani / Binding of serum 6 to linear peptides of protein X2 / Binding of serum 37 to linear peptides of protein X2 / Binding of serum 37 to looped/cyclic peptides of protein X2 of SARS-CoV Urbani / Binding of serum 6 to linear peptides of protein M of SARS-CoV Urbani / Binding of serum 37 to linear peptides of protein M of SARS-CoV Urbani / Binding of serum 6 to looped/cyclic peptides of protein M of SARS-CoV Urbani / Binding of serum 37 to looped/cyclic peptides of protein M of SARS-CoV Urbani / Binding of serum 6 to linear peptides of protein X3 of SARS-CoV Urbani / Binding of serum 37 to linear peptides of protein X3 of SARS-CoV Urbani / Binding of serum 37 to looped/cyclic peptides of protein X3 of SARS-CoV Urbani / Binding of serum 6 to linear peptides of protein X4 of SARS-CoV Urbani / Binding of serum 37 to linear peptides of protein X4 of SARS-CoV Urbani / Binding of serum 37 to looped/cyclic peptides of protein X4 of SARS-CoV Urbani / Binding of serum 6 to linear peptides of protein X5 of SARS-CoV Urbani / Binding of serum 37 to linear peptides of protein X5 of SARS-CoV Urbani / Binding of serum 37 to looped/cyclic peptides of protein X5 of SARS-CoV Urbani / Binding of serum 6 to linear peptides of protein N of SARS-CoV Urbani / Binding of serum 37 to linear peptides of protein N of SARS-CoV Urbani / Binding of serum 6 to linear peptide (PEPSCAN-ELISA) / Binding of serum 1a to looped/cyclic peptides of protein N of SARS-CoV Urbani / Binding of serum 1b to looped/cyclic peptides of protein N of SARS-CoV Urbani / Binding of serum 2 to looped/cyclic peptides of protein N of SARS-CoV Urbani / Binding of serum 6 to looped/cyclic peptides of protein N of SARS-CoV Urbani / Binding of serum 37 to looped/cyclic peptides of protein N of SARS-CoV Urbani / Binding of serum 62 to looped/cyclic peptides of protein N of SARS-CoV Urbani / Binding of serum London to looped/cyclic peptides of protein N of SARS-CoV Urbani / Binding of serum SARS-green to looped/cyclic peptides of protein N of SARS-CoV Urbani: unit not given here
Sequence,Binding of Control Serum Blood-Bank to Looped peptides [3],Binding of Control serum Blood-bank to linear peptides [3],Binding of serum 1a to linear peptides of protein N of SARS-CoV Urbani [4],Binding of serum 1a to looped/cyclic peptides of protein N of SARS-CoV Urbani [4],Binding of serum 1b to linear peptides of protein N of SARS-CoV Urbani [4],Binding of serum 1b to looped/cyclic peptides of protein N of SARS-CoV Urbani [4],Binding of serum 2 to linear peptides of protein N of SARS-CoV Urbani [4],Binding of serum 2 to looped/cyclic peptides of protein N of SARS-CoV Urbani [4],Binding of serum 6 to linear peptides of protein N of SARS-CoV Urbani [4],Binding of serum 6 to looped/cyclic peptides of protein N of SARS-CoV Urbani [4],Binding of serum 37 to linear peptides of protein N of SARS-CoV Urbani [4],Binding of serum 37 to looped/cyclic peptides of protein N of SARS-CoV Urbani [4],Binding of serum 62 to linear peptides of protein N of SARS-CoV Urbani [4],Binding of serum 62 to looped/cyclic peptides of protein N of SARS-CoV Urbani [4],Binding of serum London to linear peptides of protein N of SARS-CoV Urbani [4],Binding of serum London to looped/cyclic peptides of protein N of SARS-CoV Urbani [4],Binding of serum SARS-green to linear peptides of protein N of SARS-CoV Urbani [4],Binding of serum SARS-green to looped/cyclic peptides of protein N of SARS-CoV Urbani [4],Binding of serum SARS-yellow to linear peptides of protein N of SARS-CoV Urbani [4],Binding of serum SARS-yellow to looped/cyclic peptides of protein N of SARS-CoV Urbani [4],also measured
PQSNQRSAPRITFGG,0.8,0.5,0.3,0.5,0.2,0.3,0.2,0.5,0.1,0.5,0.6,0.8,0.6,0.7,0.4,0.5,0.3,0.4,0.5,0.6,Recognition of the peptide by the rabbit serum [1]: also recognized; Recognition of the peptide by antibody 03-018 [2]: recognized; Binding of Control serum LUMC to linear peptides [3]: 0.6; Binding of Control serum LUMC to looped peptides [3]: 0.7
PRGQGVPINTNSGPD,0.4,0.7,0.2,0.2,0.1,0.1,0.1,0.2,0.1,0.1,0.6,0.3,0.4,0.2,0.4,0.2,0.2,0.1,0.6,0.1,Binding of a rabbit serum to linear peptides of protein N of SARS-CoV Urbani (Rabbit serum linear peptides) [1]: 0.1; Binding of a rabbit serum to looped/cyclic peptides of protein N of SARS-CoV Urbani (Rabbit serum looped peptides) [1]: 0.0; Binding of antibody 03-018 to linear peptides of the N protein of SARS-CoV Urbani [2]: 0.1; Binding of antibody 03-018 to looped/cyclic peptides of the N protein of SARS-CoV Urbani [2]: 0.2; Binding of Control serum LUMC to linear peptides [3]: 0.5; Binding of Control serum LUMC to looped peptides [3]: 0.3
PRITFGGPTDSTDNN,0.6,0.6,0.2,0.3,0.1,0.2,0.2,0.3,0.1,0.2,0.7,0.7,0.6,0.5,0.5,0.3,0.6,0.8,0.3,0.4,Binding of a rabbit serum to linear peptides of protein N of SARS-CoV Urbani (Rabbit serum linear peptides) [1]: 0.3; Binding of a rabbit serum to looped/cyclic peptides of protein N of SARS-CoV Urbani (Rabbit serum looped peptides) [1]: 0.4; Recognition of the peptide by antibody 03-018 [2]: recognized; Binding of Control serum LUMC to linear peptides [3]: 0.5; Binding of Control serum LUMC to looped peptides [3]: 0.6
PSASAFFGMSRIGME,,,0.2,0.4,0.1,0.3,0.1,0.3,0.1,0.2,0.6,0.6,0.5,0.4,0.5,0.3,0.1,0.3,0.6,0.4,Binding of a rabbit serum to linear peptides of protein N of SARS-CoV Urbani (Rabbit serum linear peptides) [1]: 0.1; Binding of a rabbit serum to looped/cyclic peptides of protein N of SARS-CoV Urbani (Rabbit serum looped peptides) [1]: 0.3; Binding of antibody 03-018 to linear peptides of the N protein of SARS-CoV Urbani [2]: 0.1; Binding of antibody 03-018 to looped/cyclic peptides of the N protein of SARS-CoV Urbani [2]: 0.2; Control Serum Blood-Bank Looped peptides [3]: 0.4; Control serum Blood-bank linear peptides [3]: 0.6; Control serum LUMC linear peptides [3]: 0.6; Control serum LUMC looped peptides [3]: 0.5
